The test system of series [1] is NF-κB. The series can be described thus: Phosphorylation and degradation of IκBα and phosphorylation of NF-κB in TPA-stimulated skin keratinocytes (western blot). The series is classed as cell-based, human. Here is the method: (§1) Herein, in order to verify the effect of novel synthetic YG-II-6 compounds and their lead compound, phytosphingosine, on phosphorylation and degradation of IκBα, which is a protein that inhibits the activity of NF-κB by forming a complex with NF-κB, skin keratinocytes were pre-treated with respective compounds for 1 hour and then stimulated with 400 nM TPA for 15 minutes and 30 minutes, respectively. In order to verify the phosphorylation of NF-κB and the expression level of NF-κB in the cytoplasm and nucleus, skin keratinocytes were stimulated for 15 minutes and 1 hour, respectively. The results were confirmed by western blot analysis. In addition, the nuclear translocation of NF-κB was confirmed through reaction with antibodies, fluorescent labeling, and direct observation by microscopy. In order to verify the activity of the respective compounds at the transcription stage, cells were transfected with plasmids labeled with NF-κB luciferase reporter, and the luciferase activity was measured by the luciferase assay. In addition, the phosphorylation of IκBα and NF-κB was measured in the PTA-stimulated mouse skin.
For orientation: A western blot detects proteins with antibodies after separation by electrophoresis.

Series [2] deals with NF-κB. Kind of series: Nuclear translocation of NF-κB in TPA-stimulated skin keratinocytes (immunostaining, microscopy). In kind it is cell-based, human. The following applies: TPA stimulation, FIG. 1B. Here is the method:
as §1

Series [3] deals with NF-κB. The series can be described thus: NF-κB luciferase reporter assay, TPA stimulation. The series is classed as cell-based. The note with it: FIG. 1C. The procedure: as §1
In the next series the test system is ERK1/2, p38, JNK. Kind of series: MAP kinase phosphorylation in TPA-stimulated skin keratinocytes (western blot). In kind it is cell-based, human. The note with it: FIG. 4. The procedure: In order to verify the effects of the respective compounds on MAP kinase, skin keratinocytes were treated with the respective compounds for 1 hour, and then stimulated with 400 nM TPA for 15 minutes. The level of phosphorylation was confirmed by western blot assay.

The subject of series [4] is human-derived keratinocytes. The series can be described thus: Cytotoxicity on human-derived keratinocytes (WST-1 reagent). The note with it: WST-1, FIG. 7A. In kind it is cell-based. The procedure:
(§2) Therefore, in order to verify the degree of the cytotoxicity of the YG-II-6 compounds, their cytotoxicity on human-derived keratinocytes was confirmed by using the WST-1 reagent. In order to verify the effects of the compounds on the expression of proteins associated with apoptosis, the keratinocytes were treated with corresponding concentrations of the respective compound samples and stimulated with TPA for 24 hours, and the expression levels of proteins were confirmed by western blot assay. In addition, human-derived keratinocytes and primary culture skin keratinocytes were treated with the compounds, and after 24 hours, subjected to FITC staining and TUNEL assay, and the skin tissues isolated from TPA-induced mice was subjected to FITC staining.
(In general: Tetrazolium assays rely on reduction of a dye to a coloured formazan, in cell work by metabolically active cells.)

Series [5] deals with human-derived keratinocytes and primary culture skin keratinocytes. The series can be described thus: Apoptosis in keratinocytes (FITC staining and TUNEL assay). In kind it is cell-based. The note with it: 24 hours, FIGS. 7C to 7E. The procedure:
as §2

For a further series, the system named is mouse skin tissues. The series can be described thus: Apoptosis in skin tissues isolated from TPA-induced mice (FITC staining). The series is classed as in vivo. The following applies: FIGS. 7C to 7E. The procedure:
as §2

Where [6] appears, read: overall conclusion of section 2-1.

Turning to `CCCCCCCCCCCCCC[C@@H](O)[C@@H](O)[C@H](CO)NC(=O)/C=C/C(=O)O` [fYG-II-6, (E)-4-oxo-4-(((2S,3S,4R)-1,3,4-trihydroxyoctadecan-2-yl)amino)but-2-enoic acid], the “inhibitory effect on the NF-κB activation, fYG-II-6 compared with mYG-II-6” value in the series on NF-κB [1] (setting [6]) was “relatively greater inhibitory effect than mYG-II-6”.
Take `CCCCCCCCCCCCCC[C@@H](O)[C@@H](O)[C@@H](N)CO` [phytosphingosine]: in the series with NF-κB [1] (setting [6]), the “activation of NF-κB (phosphorylation and degradation of IκBα)” value is reported as “inhibited”. Also, in the series with NF-κB [1] (skin keratinocytes, 1 hour pre-treatment, 400 nM TPA, FIG. 1A), the “phosphorylation of IκBα and NF-κB increased by TPA stimulation” value is reported as “inhibited”. The “nuclear translocation of NF-κB” value in the series on NF-κB [2] is on record as “inhibited”. The “NF-κB luciferase activity increased by TPA stimulation” value in the series with NF-κB [3] was “inhibited”. Moreover, in the series on ERK1/2, p38, JNK, the “inhibitory activity on phosphorylation of ERK1/2, p38, and JNK relative to the YG-II-6 compounds” value was “relatively weaker inhibitory activity”. Further, the “phosphorylation of ERK1/2, p38, and JNK” value with ERK1/2, p38, JNK (skin keratinocytes, 1 hour treatment, 400 nM TPA 15 minutes) is on record as “no or little inhibitory effect”. Moreover, in series [4], the “concentration at which cytotoxicity was shown” value lay in the range of 5 to 10 µM. Moreover, in series [5], the “apoptosis in the TPA-stimulated cells” value is reported as “induced apoptosis”. In addition, in the series with mouse skin tissues, the “apoptosis in the mouse skin tissues” value is given as “induced apoptosis”.

The record behind these values is US20140357720A1, “NOVEL PHYTOSPHINGOSINE DERIVATIVES, AND A COSMETIC COMPOSITION COMPRISING THE SAME FOR PREVENTING AND AMELIORATING INFLAMMATORY SKIN DISEASES AND HYPERKERATOSIS DISEASES” (THE CATHOLIC UNIVERSITY OF KOREA INDUSTRY-ACADEMIC …, priority 2011, published 2014).
